This note sets out measurements from US10821100B2, “Triazolone compounds as mPGES-1 inhibitors” (Glenmark Pharmaceuticals S.A., priority 2012, dated 2020).

pIC50: −log10 of the molar value. Where only a bound is given, the exact number is not on record here.

The target of the assay is T1, Recombinant human mPGES-1 (Homo sapiens, UniProt O14684).
T1 construct: made in house; host or cells: CHO cells (crude microsomal fractions)
T1 sequence (O14684 1-152): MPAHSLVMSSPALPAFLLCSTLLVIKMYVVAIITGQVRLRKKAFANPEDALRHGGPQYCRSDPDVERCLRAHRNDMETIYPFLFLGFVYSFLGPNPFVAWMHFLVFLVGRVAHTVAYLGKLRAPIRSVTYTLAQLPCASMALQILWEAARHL
As to the kind of experiment: In-vitro screening of mPGES-1 inhibitors (inhibition of PGE2 formation from PGH2, HTRF detection). The assay is classed as biochemical. As to conditions: mPGES-1 enzyme; for inhibition at 1 µM: 1 μM test compound, read-out: Percentage inhibition at 1 μM; for inhibition at 10 µM: 10 μM test compound, read-out: Percentage inhibition at 10 μM; for pIC50: class symbols. The gist of the method: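 Crude CHO-expressed microsomes (40–60 μg/mL protein) preincubated 10 min with compound in 0.1 M potassium phosphate/2 mM EDTA containing 2.5 mM GSH, 0.5% DMSO final. PGH2 (15 μM) reacted 1 min, stopped with stannous chloride. PGE2 quantified by HTRF, IC50 from nonlinear regression of percent inhibition.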
A general note: In TR-FRET formats the signal depends on donor and acceptor labels being close together.

Broadly, the inhibition is the percentage by which the read-out fell short of the control. As a reminder, the pIC50 is −log10 of the IC50, conventionally taken in molar units. Take `O=C(NCc1ccc(Cl)c(-c2nn(-c3ccc(C(F)(F)F)cc3)c(=O)[nH]2)c1)[C@@H]1CCCO1` [Example-109, (S)—N-(4-Chloro-3-(1-(4-(trifluoromethyl)phenyl)-4,5-dihydro-5-oxo-1H-1,2,4-triazol-3-yl)benzyl)-tetrahydro furan-2-carboxamide]: the pIC50 was 7.00 to 7.30. In addition, where the note is “crude microsomal fractions”, the inhibition at 1 µM amounted to 97.1% and the inhibition at 10 µM is 97.2%.
For `O=C(Nc1ccc(C(F)(F)F)cc1)c1ccc(-n2nc(-c3c(F)cccc3Cl)[nH]c2=O)cc1` [Example-29, 4-(3-(2-Chloro-6-fluorophenyl)-5-oxo-4,5-dihydro-1H-1,2,4-triazol-1-yl)-N-(4-(trifluoromethyl)phenyl)benzamide], in that order: under 7.00, 79.2% and 85.8%.
In the case of `COc1cc(-n2nc(-c3c(C)cccc3Cl)[nH]c2=O)ccc1-c1nc(-c2ccc(Cl)cc2)no1` [Example-55, 3-(2-Chloro-6-methylphenyl)-1-(4-(3-(4-chlorophenyl)-1,2,4-oxadiazol-5-yl)-3-methoxyphenyl)-1H-1,2,4-triazol-5(4H)-one], the pIC50 was over 7.30. Further, the inhibition at 1 µM (crude microsomal fractions) worked out at 81%. In addition, the inhibition at 3 µM (3 μM test compound, crude microsomal fractions, read-out: Percentage inhibition at 3 μM) amounted to 91.8%.
On to `COc1cc(-n2nc(-c3c(Cl)cccc3Cl)[nH]c2=O)ccc1C(=O)Nc1ccc(F)c(C(F)(F)F)c1` [Example-43, 4-(3-(2,6-Dichlorophenyl)-5-oxo-4,5-dihydro-1H-1,2,4-triazol-1-yl)-N-(4-fluoro-3-(trifluoromethyl)phenyl)-2-methoxybenzamide], for which the pIC50 is over 7.30. Moreover, under “crude microsomal fractions”, the inhibition at 1 µM was 98.6% and the inhibition at 10 µM was found to be 99%.
As to `O=C(NC1(c2ccc(C(F)(F)F)cc2)CC1)c1ccc(-n2nc(-c3c(F)cccc3Cl)[nH]c2=O)cc1` [Example-22, 4-[3-(2-Chloro-6-fluorophenyl)-5-oxo-4,5-dihydro-1H-1,2,4-triazol-1-yl]-N-{1-[4-(trifluoromethyl)phenyl]cyclopropyl}benzamide], for the setting “crude microsomal fractions”, the inhibition at 1 µM was found to be 39.3% and the inhibition at 10 µM was determined as 99.7%.
In the case of `O=c1[nH]c(-c2c(F)cccc2Cl)nn1-c1ccc(C#Cc2cc(Cl)ccc2Cl)cc1` [Example-10, 5-(2-Chloro-6-fluorophenyl)-2-{4-[(2,5-dichlorophenyl)ethynyl]phenyl}-2,4-dihydro-3H-1,2,4-triazol-3-one], the pIC50 is over 7.30. Further, for the setting “crude microsomal fractions”, the inhibition at 1 µM was found to be 84.9% and the inhibition at 10 µM amounted to 91.2%.
`O=C(NCc1ccc(Cl)c(-c2nn(-c3ccc(Cl)c(F)c3)c(=O)[nH]2)c1)C(F)(F)F` [Example-116, N-(4-chloro-3-(1-(4-chloro-3-fluorophenyl)-4,5-dihydro-5-oxo-1H-1,2,4-triazol-3-yl)benzyl)-2,2,2-trifluoroacetamide]: the pIC50 is over 7.30. Moreover, under “crude microsomal fractions”, the inhibition at 1 µM was determined as 98% and the inhibition at 10 µM was 95.5%.
In the case of `CC(C)(C)C(=O)NCc1ccc(Cl)c(-n2nc(-c3ccc(CN4CCCC4)cc3)[nH]c2=O)c1` [Example-151, N-(4-Chloro-3-(4,5-dihydro-5-oxo-3-(4-((pyrrolidin-1-yl)methyl)phenyl)-1,2,4-triazol-1-yl)benzyl)pivalamide], for the setting “crude microsomal fractions”, the inhibition at 1 µM stood at 65% and the inhibition at 10 µM is 95.9%.
For the compound `CC(C)(C)C(=O)NCc1ccc(Cl)c(-n2nc(-c3ccc(C#CC4CC4)cc3F)[nH]c2=O)c1` [Example-168, N-(4-Chloro-3-(3-(4-(2-cyclopropylethynyl)-2-fluorophenyl)-4,5-dihydro-5-oxo-1,2,4-triazol-1-yl)benzyl)pivalamide], the pIC50 is over 7.30. For the setting “crude microsomal fractions”, the inhibition at 1 µM was 100% and the inhibition at 10 µM turned out to be 98.9%.
